Assay results from patent US20220281930A1, “COMPOSITIONS AND METHODS FOR THE TREATMENT OF PATHOLOGICAL PAIN AND ITCH” (DUKE UNIVERSITY, priority 2019, published 2022).

Columns and labels:
[1] = system: neuronal [Cl—]i; test: Clomeleon chloride imaging in rat primary cortical neurons; assay type: cell-based
Experimental: Chloride imaging of primary cultured cortical neurons was conducted as previously described (Kuner and Augustine, 2000, Neuron 27:447-459; Liedtke et al., 2013, Small 9:1066-1075; Yeo et al., 2009, J Neurosci 29:14652-14662). A Clomeleon expression plasmid was transfected into primary cortical neurons by electroporation (Amaxa Nucleofector Device). Transfected neurons were verified by yellow fluorescent protein (YFP) fluorescence, and ratiometric images (excitation at λ=434 nm, dual emission at λ=485 and 535 nm; for resting chloride, six stable frames at […] were captured, which were averaged) were acquired using RATIOTOOL program. Calibration of Clomeleon signals (535 nm/485 nm emission ratio) was performed by using tributyltin-nigericin to establish a standard curve, which was then normalized for measured intraneuronal pH to take into account the pH sensitivity of Clomeleon.

[2] = system: KCC2; test: Immuno-cytochemistry morphometry of primary human cortical neurons, KCC2; assay type: cell-based; conditions: 400 nM KP
Experimental: The neuron-enriched cultures were established from fetal cortical specimens at 15-20 weeks of gestation. The protocols for tissue processing complied with all federal and institutional guidelines. The cultures were plated on PEI (polyethyleneimine solution) substrate and maintained in Neurobasal media supplemented with B27 as previously described (Pelsman et al., 2003, International journal of developmental neuroscience 21:117-124; Yeo et al., 2013, Proc Natl Acad Sci USA 110:4315-4320).
For immunostaining, the cultures were treated for 2-4 days with vehicle or 400 nM KP, fixed with 4% PFA at day 10, and processed for double-staining with anti-KCC2 and anti-synaptophysin or anti-NeuN (see Table 1).
The 0.34 micrometer confocal slices through entire cell layers at different optical fields (n=17-28 for each group) of the fixated cultures were acquired using a Zeiss LSM700 confocal microscope.
Image Z-stacks were analyzed using Imaris 9.2.1 software. Optical density intensity sum values for each stack/channel were divided by corresponding data volumes and the resulting values were normalized to the number of specifically labeled cells within each stack. There were no significant differences in the number of cells between vehicle and KP-treated groups.

[3] = system: KCC2; test: Composite score from primary and secondary screening; assay type: cell-based, mouse; conditions: Natural Compounds
Experimental: The primary screen encompassed three levels of LUC measurements. The first level of screening yielded a total of 137 compounds with cut-off RLU>125% LUC activity. These 137 compounds were subject to second round of screening, which was carried out in duplicate independent assays to yield the top 103 compounds sorted for highest RLU. The 103 compounds were then subjected to a third round of screening carried out in duplicate independent assays to yield the top 40 compounds which were again ranked. The best 22 of these 40 compounds (ranked for highest RLU activity) were subjected to secondary screening: Cultured neurons were treated with the 22 compounds; RT-qPCR and Clomeleon imaging methodologies (Yeo et al., 2009, J Neurosci 29:14652-14662) were used to determine effects of compounds on KCC2 mRNA expression and [Cl—]i, respectively. Each compound was ranked based on composite scores from primary and secondary screening.
To identify KCC2 gene expression enhancing compounds, cultured primary cortical neurons were cultured from KCC2-luciferase(LUC)-knockin (KCC2-LUCki) mice (Liedtke et al., 2013, Small 9:1066-1075; Yeo et al., 2013, Proc Natl Acad Sci USA 110:4315-4320) and used LUC metrics as readout for activity of the proximal KCC2 promoter (2.5 kB (Yeo et al., 2009, J Neurosci 29:14652-14662)), which drives LUC in this mouse transgenic line. A Z′ factor of 0.94 was obtained. This strategy will not select for long-range enhancers of KCC2 gene expression that act outside the 2.5 kB core KCC2 promoter. 1057 compounds, contained in two NCI libraries (FIG. 1), related to inhibition of growth of malignantly transformed cells were screened. Iterative screening followed by measurements of KCC2 mRNA (RT-qPCR) and intracellular chloride ([Cl—]i), using clomeleon chloride indicator protein (Kuner and Augustine, 2000, Neuron 27:447-459; Yeo et al., 2009, J Neurosci 29:14652-14662), led to decreasing numbers of confirmed and re-confirmed hits, and 4 “winner” compounds were selected (FIG. 1 and Table 3).

[4] = system: mouse KCC2 promoter constructs; test: KCC2 promoter luciferase reporter assay in N2a cells; assay type: cell-based; conditions: KP 400 nM
Excerpt: A fragment of the mouse KCC2 gene promoter (position −2052 […]) was amplified from genomic DNA prepared from cultured mouse primary glial cells. A 2.5 kb PCR fragment was cloned into the pGL4.17-Basic Vector (Promega) to generate the KCC2 promoter reporter construct. TCF and Kaiso binding sites were identified in this fragment. Using wild-type construct pGL4.17-KCC2 as a template, site-directed mutagenesis using Phusion DNA Polymerase enzyme (Thermo Fisher F549L) in conjunction with complementary primers bearing the specific mutation were used to mutate the Kaiso and TCF DNA-binding sites. PCR was followed by Dpn1 enzyme digestion to remove parental plasmid DNA. All constructs were verified by sequencing.
N2a cells were grown to 90% confluency in 24-well dishes in 0.4 mL of medium (DMEM, 2% Fetal Bovine Serum, 2 mM glutamine, 1% Non-essential amino acids, and 1% Penicillin/Streptomycin). Cells were transiently transfected using TurboFect reagent (Thermo Fisher R0531), with 500 ng of the pGL4.17-constructs plus 20 ng of the control Renilla plasmid (Promega, E2231) to normalize for transfection efficiency. Twenty-four hours after transfection, luminescence was measured using the Dual-Luciferase® Reporter Assay System (Promega) in a microplate luminometer (Veritas, Turner Biosystems). Mutant promoters were compared to WT, and the response of the respective promoter to KP (400 nM) was measured. Three independent transfection experiments were carried out and LUC assays were done in triplicates for each transfection. RLU is expressed as firefly luciferase activity relative to Renilla LUC activity.
Promoter expression constructs were built with rationally-targeted deletions to interrogate the effects of the Kaiso- and TCF-binding sites on activity of the KCC2 promoter and to determine if this activity was regulated by KP. For ease of transfection, key to this method, N2a neural cells were again used. The 5′ and 3′ delta-cat Kaiso binding sites functioned in repressive and enhancing manners, respectively (FIG. 11D).

SMILES: O=C1Cc2c([nH]c3ccc(Br)cc23)-c2ccccc2N1 [kenpaullone, 9-bromo-7,12-dihydro-indolo [3,2-d] [1]benzazepin-6(5H)-one]
- KCC2 chloride transporter mediated chloride efflux ([1]; KP vs vehicle at 10 min and 20 min time-points): does not enhance
- neuronal [Cl—]i ([1]; clomeleon, after KP treatment vs vehicle): robustly and significantly reduced
- time to enhanced KCC2 gene expression and KCC2 chloride extrusion function ([1]; rat neurons, FIG. 2D): ≤ 3 h
- increased KCC2 expression relative to vehicle [2]: 62%
- Top 2 hits [3]: winner
- Total Score ([3]; sum of the three scores): 6
- KCC2 promoter LUC activity ([4]; Kaiso1 deletion (ΔK1) construct): significantly enhanced further
- KCC2 promoter LUC activity ([4]; TCF deletion constructs of FIG. 11C): did not increase
- KCC2 promoter LUC activity ([4]; deletion of both Kaiso sites): non-responsiveness
- KCC2 promoter LUC activity ([4]; triple-deletion of both Kaiso sites and TCF site): completely non-responsive
